A short description of series [1]: Solubility Measurements. It is filed as physicochemical.
Series [2] can be described thus: pH shift dissolution method (0.1N HCl, then shift to pH 6.5). It is filed as physicochemical. Particulars: in vitro tests; with block copolymers versus without. How it is done:
pH Shift Dissolution Method
The formulations were weighed into hard gelatin capsules (equivalent to 25 mg drug) and dissoluted in 500 ml 0.1N HCl for one hour at 37° C. (paddle speed 100 rpm). A 5 ml sample was taken at 55 minutes and the media replaced. After one hour 10 ml of a 2.5M KH2PO4/16.72% (w/v) NaOH solution was added to the HCl to shift the pH to 6.5. 5 ml samples were then removed with a plastic syringe at 5, 15, 30, 45 and 60 minutes and media replaced after every sampling time point. Each sample was centrifuged (14,000 rpm) at ambient temperature for 15 minutes and then analysed by HPLC using the following conditions: […]

≈ marks a conversion by molar mass, not a printed value.

On to `O=C(c1ccc(-c2ccncc2)cc1)N1CCN(S(=O)(=O)c2ccc3cc(Cl)ccc3c2)CC1` [Compound 1, 1-(6-chloronaphth-2-ylsulfonyl)-4-[4-(4-pyridyl)benzoyl] piperazine], for which the solubility is 250 µg/mL (≈ 508 µM) in series [1] (pH 1.2, simulated gastric fluid); 2 µg/mL (≈ 4.07 µM) in series [1] (pH 6.8, aqueous buffer); less than 5 µg/mL in series [1] (water). The “improvement of maximum supersaturated concentration by use of the polymers” value in series [2] is recorded as 4-10 times.

One may read the solubility as how much of the substance goes into solution per volume. Low values mean a poorly soluble substance, high ones a readily soluble substance.

The values are drawn from patent US20040076673A1, “Oral pharmaceutical composition containing a block copolymer” (priority 2000, published 2004).
